Reference: paper PMC4550221 (Bioorganic & medicinal chemistry, 2015)
Structures can show the parent of a compound that is named as a salt. Where two headings read alike, the source gives them in different places.

Assays:
[1] = tested on: P. falciparum 3D7; conditions: read-out: reported XC50; TCAMS screening dataset; cited from earlier work
[2] = tested on: P. falciparum 3D7; test: Inhibition of parasite growth in P. falciparum 3D7-infected red blood cells; type: cell-based, Plasmodium falciparum; conditions: for fold loss in 3D7 potency: R8 changes relative to parent analog (4a series); for 3D7 potency described in words (relative to comparator): comparator 4e unless 4-series (4a); for IC50: Plasmodium falciparum, 3D7, Erythrocyte; for fold reduction in 3D7 potency: relative to 4e (isopentyl R1)
[3] = tested on: HepG2 cells; test: HepG2 72 h cytotoxicity; conditions: HepG2 cytotoxicity vs antimalarial activity
[4] = Rat PK experiment in vivo; conditions: iv, 1 mg/kg
[5] = tested on: Plasmodium; conditions: read-out: reported EC50; Novartis-GNF collection, GNF-Pf-5345; cited from earlier work
[6] = HepG2 72 h cytotoxicity; conditions: human, HepG2 cells

| Compound | 3D7 potency described in words (relative to comparator) [2] | other results |
| --- | --- | --- |
| CCN1C(=O)N(CCC(C)C)C2(CCN(Cc3ccc(OC)cc3O)CC2)C1=O [Compound 4a] | – | IC50 [1]: 840 nM |
| CCN1C(=O)N(CCC(C)C)C2(CCN(Cc3cccc(OC)c3O)CC2)C1=O [Compound 4b] | – | fold loss in 3D7 potency [2]: 6 fold |
| CCN1C(=O)N(CCC(C)C)C2(CCN(Cc3ccccc3O)CC2)C1=O [Compound 4d] | did not have a significant impact on potency | – |
| CCN1C(=O)N(CCC(C)C)C2(CCN(Cc3cc(Cl)ccc3O)CC2)C1=O [Compound 4e, 8-(5-chloro-2-hydroxybenzyl)-3-ethyl-1-isopentyl-1,3,8-triazaspiro[4.5]decane-2,4-dione hydrochloride] | about a five-fold improvement in potency | selectivity index [3]: > 100; clearance [4]: 152 mL/min/kg; EC50 [5]: 349 nM; IC50 ([2]; read-out: IC50 in P. falciparum 3D7 infected erythrocytes): 310 nM |
| CCN1C(=O)N(CCC(C)C)C2(CCN(Cc3cccc(Cl)c3)CC2)C1=O [Compound 4f] | – | fold loss in 3D7 potency [2]: 8- to 60 fold |
| CCN1C(=O)N(CCC(C)C)C2(CCN(Cc3ccc(OC)cc3OC)CC2)C1=O [Compound 4g] | – | fold loss in 3D7 potency [2]: 8- to 60 fold |
| CCN1C(=O)NC2(CCN(Cc3cc(Cl)ccc3O)CC2)C1=O [Compound 10a] | – | fold reduction in 3D7 potency [2]: ≥ 20 fold |
| CCN1C(=O)N(CC)C2(CCN(Cc3cc(Cl)ccc3O)CC2)C1=O [Compound 10b] | – | fold reduction in 3D7 potency [2]: ≥ 20 fold |
| CCN1C(=O)N(C2CCCC2)C2(CCN(Cc3cc(Cl)ccc3O)CC2)C1=O [Compound 10c] | well tolerated | – |
| CCN1C(=O)N(c2ccccc2)C2(CCN(Cc3cc(Cl)ccc3O)CC2)C1=O [Compound 10d] | detrimental to potency | – |
| CCN1C(=O)N(Cc2ccccc2)C2(CCN(Cc3cc(Cl)ccc3O)CC2)C1=O [Compound 10e] | roughly equipotent | – |
| CCN1C(=O)N(CCc2ccccc2)C2(CCN(Cc3cc(Cl)ccc3O)CC2)C1=O [Compound 10f] | roughly equipotent | – |
| CCN1C(=O)N(Cc2ccc(OC)cc2)C2(CCN(Cc3cc(Cl)ccc3O)CC2)C1=O [Compound 10g] | tolerated with some modest effects on potency | – |
| CCN1C(=O)N(Cc2ccc(C#N)cc2)C2(CCN(Cc3cc(Cl)ccc3O)CC2)C1=O [Compound 10h] | tolerated with some modest effects on potency | – |
| CC(C)CCN1C(=O)NC(=O)C12CCN(Cc1cc(Cl)ccc1O)CC2 [Compound 11a] | dramatic loss in activity | – |
| CC(C)CCN1C(=O)N(C(C)C)C(=O)C12CCN(Cc1cc(Cl)ccc1O)CC2 [Compound 11b] | improved potency three-fold | – |
| CC(C)CCN1C(=O)N(Cc2cccnc2)C(=O)C12CCN(Cc1cc(Cl)ccc1O)CC2 [Compound 11c] | modest two-three-fold losses of potency | – |
| CC(C)CCN1C(=O)N(CCCc2ccncc2)C(=O)C12CCN(Cc1cc(Cl)ccc1O)CC2 [Compound 11d] | modest two-three-fold losses of potency | – |
| CCN1C(=O)N(CCC(C)C)C2(CCN(Cc3cc(O)cc(Cl)c3)CC2)C1=O [Compound 12a] | increasingly detrimental to 3D7 potency | – |
| CCN1C(=O)N(CCC(C)C)C2(CCN(Cc3cc(Br)ccc3O)CC2)C1=O [Compound 12d] | well tolerated | – |
| CCN1C(=O)N(CCC(C)C)C2(CCN(Cc3cc(-c4ccccc4)ccc3O)CC2)C1=O [Compound 12f] | – | IC50 at 72 h [6]: > 50000 nM |
| CCN1C(=O)N(CCC(C)C)C2(CCN(Cc3c(O)cccc3Cl)CC2)C1=O [Compound 12g] | essentially equipotent | – |
| CCN1C(=O)N(CCC(C)C)C2(CCN(Cc3ccc(Cl)cc3O)CC2)C1=O [Compound 12h] | three- to seven-fold less potent | IC50 at 72 h [6]: > 50000 nM |
| CCN1C(=O)N(CCC(C)C)C2(CCN(Cc3cc(Cl)cc(Cl)c3O)CC2)C1=O [Compound 12j] | equipotent | – |
| CCN1C(=O)N(CCC(C)C)C2(CCN(Cc3cc(Cl)c(Cl)cc3O)CC2)C1=O [Compound 12k] | – | selectivity index [3]: greater than 500; IC50 at 72 h [6]: > 50000 nM; IC50 ([2]; read-out: IC50 in P. falciparum 3D7 infected erythrocytes, 3D7 (chloroquine-sensitive) strain): 99 nM |
| CCN1C(=O)N(CCC(C)C)C2(CCN(C(=O)c3cc(Cl)ccc3O)CC2)C1=O [Compound 12m] | lack of 3D7 potency | – |
| CCN1C(=O)N(CCC(C)C)C2(CCN(Cc3cccc4cc[nH]c34)CC2)C1=O [Compound 12u] | hint of potency | – |
